Test results taken from patent publication US20260071220A1, “CONJUGATE OF NUCLEOTIDE ANALOG-CONTAINING DOUBLE-STRANDED RNAI ANALOG” (BaseCure Therapeutics LLC, priority 2022, published 2026).
In the oligonucleotide strings, read from the 5' end, every base follows the letter of its sugar. An asterisk marks phosphorothioate; unmarked linkages are phosphodiester. Other units and linkages are bracketed, terminal groups are in braces. A string of capitals states the bases alone. {D01} = GalNAc ligand D01, attached to sense strand by a phosphodiester bond; m = 2'-O-methyl; f = 2'-fluoro

What was measured:
[1] = biological target: T1, hTLR7 (Homo sapiens, UniProt Q9NYK1); test: Agonistic activity on hTLR7 cells (HEK BLUE, QUANTI-Blue OD650); type: cell-based; settings: 24 h, transfection with RNAiMAX, maximum concentration 200 nM
T1 construct: host or cells: HEK BLUE hTLR7 (HEK293-derived SEAP reporter line)
T1 sequence (Q9NYK1 27-1049): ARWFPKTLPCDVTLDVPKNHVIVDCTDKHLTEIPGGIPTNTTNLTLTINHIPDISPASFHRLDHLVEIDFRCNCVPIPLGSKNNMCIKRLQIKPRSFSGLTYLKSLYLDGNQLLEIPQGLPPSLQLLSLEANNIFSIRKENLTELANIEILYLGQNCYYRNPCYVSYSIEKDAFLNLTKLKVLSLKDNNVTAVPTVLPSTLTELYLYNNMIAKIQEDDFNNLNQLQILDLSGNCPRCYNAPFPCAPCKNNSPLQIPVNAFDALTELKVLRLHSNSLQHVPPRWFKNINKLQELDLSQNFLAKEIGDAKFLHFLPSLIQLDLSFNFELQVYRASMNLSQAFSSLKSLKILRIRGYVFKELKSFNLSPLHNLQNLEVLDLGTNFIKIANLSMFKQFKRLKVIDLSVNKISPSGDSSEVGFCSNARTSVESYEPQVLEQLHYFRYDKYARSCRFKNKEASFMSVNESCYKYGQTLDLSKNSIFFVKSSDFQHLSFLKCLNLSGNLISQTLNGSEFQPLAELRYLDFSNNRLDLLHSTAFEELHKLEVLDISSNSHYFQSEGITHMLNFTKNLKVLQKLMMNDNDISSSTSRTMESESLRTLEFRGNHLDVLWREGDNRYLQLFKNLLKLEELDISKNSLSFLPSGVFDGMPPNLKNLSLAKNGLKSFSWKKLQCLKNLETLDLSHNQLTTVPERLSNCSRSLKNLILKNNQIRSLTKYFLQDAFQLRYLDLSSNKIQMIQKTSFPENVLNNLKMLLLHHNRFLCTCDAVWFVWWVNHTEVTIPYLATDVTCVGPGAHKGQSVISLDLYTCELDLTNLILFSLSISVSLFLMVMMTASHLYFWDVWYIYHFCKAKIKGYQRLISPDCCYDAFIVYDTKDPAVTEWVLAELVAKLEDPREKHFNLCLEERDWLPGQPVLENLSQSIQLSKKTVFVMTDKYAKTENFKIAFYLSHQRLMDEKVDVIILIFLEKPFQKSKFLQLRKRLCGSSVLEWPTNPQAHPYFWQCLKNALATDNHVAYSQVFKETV
Method: (§1) 1) The conjugate of the present invention was diluted to a concentration that was 20 times a final concentration, the diluted conjugate was mixed with RNAiMAX-OPTI MEM (RNAiMAX:OPTI MEM=3:47) at a ratio of 1:1 and incubated for 15 min at room temperature.
(§2) 2) 10 μL of incubated conjugate of the present invention was added into a corresponding cell plate, with 10 concentrations in total, a maximum concentration being 200 nM, and double duplicated wells for each concentration.
(§3) 10 μL of 0.5 μM BLOCK-iT™ Alexa Fluor® Red Fluorescent Control was added into 2 transfection positive control wells.
(§4) 4) 90 μL of cells were seeded into a 96-well plate with the conjugate at the density of 50,000 cells/well. […]
(§5) 7) Compound activity detection: 20 μL of cell supernatant was taken from each well and added into an experimental plate containing 180 μL of QUANTI-Blue™ reagent and then incubated for 1 h at 37° C., followed by detecting an absorbance values at 650 nm (OD650) using the multifunctional microplate reader Flexstation III.
(§6) Compound activity: the OD650 values were analyzed using GraphPad Prism software, and a dose effect curve of the compound was fit, and the EC50 value of the compound was calculated. […] The cell activity % value was analyzed using GraphPadPrism software, the dose effect curve of the compound was fit, and the CC50 value of the compound on cell was calculated.

[2] = biological target: T2, hTLR8 (Homo sapiens, UniProt Q9NR97); test: Agonistic activity on hTLR8 cells (HEK BLUE, QUANTI-Blue OD650); type: cell-based; settings: 24 h, transfection with RNAiMAX, maximum concentration 200 nM
T2 construct: host or cells: HEK BLUE hTLR8 (HEK293-derived SEAP reporter line)
T2 sequence (Q9NR97 27-1041): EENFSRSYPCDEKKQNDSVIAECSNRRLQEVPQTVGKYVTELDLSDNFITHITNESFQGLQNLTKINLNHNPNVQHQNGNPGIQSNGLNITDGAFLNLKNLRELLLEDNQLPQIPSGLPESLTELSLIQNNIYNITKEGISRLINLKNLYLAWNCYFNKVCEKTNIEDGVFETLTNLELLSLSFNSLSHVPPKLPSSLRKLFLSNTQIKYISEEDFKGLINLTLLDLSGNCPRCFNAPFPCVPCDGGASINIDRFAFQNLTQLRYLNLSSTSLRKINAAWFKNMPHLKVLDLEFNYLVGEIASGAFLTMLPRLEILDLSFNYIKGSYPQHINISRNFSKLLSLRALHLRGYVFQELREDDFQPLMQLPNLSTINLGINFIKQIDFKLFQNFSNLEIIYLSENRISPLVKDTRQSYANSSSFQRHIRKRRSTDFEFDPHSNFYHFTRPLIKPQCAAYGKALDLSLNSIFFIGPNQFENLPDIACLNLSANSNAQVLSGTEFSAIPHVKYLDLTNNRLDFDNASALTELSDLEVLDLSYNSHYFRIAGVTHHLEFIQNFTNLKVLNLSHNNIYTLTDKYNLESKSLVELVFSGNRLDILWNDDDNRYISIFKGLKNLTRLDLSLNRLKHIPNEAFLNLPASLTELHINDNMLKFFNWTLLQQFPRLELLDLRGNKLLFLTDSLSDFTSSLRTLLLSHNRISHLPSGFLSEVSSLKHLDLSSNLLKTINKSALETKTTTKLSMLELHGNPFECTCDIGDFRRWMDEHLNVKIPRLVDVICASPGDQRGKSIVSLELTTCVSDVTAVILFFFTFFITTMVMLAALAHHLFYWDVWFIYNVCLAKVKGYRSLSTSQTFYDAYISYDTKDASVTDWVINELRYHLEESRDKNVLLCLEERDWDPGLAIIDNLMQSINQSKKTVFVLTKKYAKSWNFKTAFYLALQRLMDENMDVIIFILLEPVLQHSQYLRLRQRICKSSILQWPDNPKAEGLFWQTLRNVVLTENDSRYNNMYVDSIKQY
Method: as §1, §2, §3, §4, §5, §6

[3] = system: HEK BLUE hTLR3; test: Cell activity detection (CellTiter-Glo) in hTLR3 cells; type: cell-based, human; settings: 24 h, maximum concentration 200 nM, read-out: CC50
Method: as §1, §2
(§7) 4) 90 μL of cells were seeded into a 96-well plate with the conjugate at the density of 50,000 cells/well.
(§8) 5) The conjugate of the present invention and the cells were co-incubated for 24 h in an incubator under the conditions of 37° C. and 5% CO2.
(§9) 8) Cell activity detection: the operation was carried out according to the method in the Celltiter-Glo specification, and a chemiluminescence signals (RLU) were detected using the multifunctional microplate reader Flexstation III.
(§10) Compound activity: the OD650 values were analyzed using GraphPad Prism software, and a dose effect curve of the compound was fit, and the EC50 value of the compound was calculated. Cell activity detection: the calculation formula of cell activity % was as follows. The cell activity % value was analyzed using GraphPadPrism software, the dose effect curve of the compound was fit, and the CC50 value of the compound on cell was calculated.

[4] = system: HEK BLUE hTLR8; test: Cell activity detection (CellTiter-Glo) in hTLR8 cells; type: cell-based, human; settings: 24 h, maximum concentration 200 nM, read-out: CC50
Method: as §1, §2, §7, §8, §9, §10

Conjugate 2: Double-stranded RNAi analog against AGT, D01 GalNAc ligand on sense strand; sense SEQ ID NO: 6, antisense SEQ ID NO: 2 containing Z (sense mA*mU*fCfCmAfCfAfAmUmGmAmGmAfGmUmAmCmA-{D01}; antisense CUCACAUGUACNCUCAUUGUGGAUGACGA; antisense: chemistry not given here; antisense strand modified, includes nucleotide analog Z, further chemistry not fully specified)
> 200 nM: EC50 [1] | EC50 [2] | CC50 [3] | CC50 [4]

Conjugate 3: Double-stranded RNAi analog against AGT, D01 GalNAc ligand on sense strand; sense SEQ ID NO: 7, antisense SEQ ID NO: 2 containing Z (sense mA*mU*fCfCmAfCfAfAmUmGmAfGmAmGmUmAmCmA-{D01}; antisense CUCACAUGUACNCUCAUUGUGGAUGACGA; antisense: chemistry not given here; antisense strand modified, includes nucleotide analog Z, further chemistry not fully specified)
> 200 nM: EC50 [1] | EC50 [2] | CC50 [3] | CC50 [4]
